Measurements: patent publication US11718616B2, “JAK kinase inhibitor compounds for treatment of respiratory disease” (THERAVANCE BIOPHARMA R&D IP, LLC, priority 2015, dated 2023)

Key:
[1] = system: IL-13 induced pSTAT6 induction in lung tissue; assay: Murine model of IL-13 induced pSTAT6 induction in lung tissue; format: in vivo, mouse; conditions: for pSTAT6 inhibition in the pharmacodynamic assay: mouse lung, Assay 5 conditions; for lung concentration smaller than that of the corresponding compound of the invention by a factor of: mouse lung in pharmacodynamic assay, C-1 vs Example 1, C-2 vs 7, C-3 vs 13, C-4 vs 6
Protocol: Il-13 is an important cytokine underlying the pathophysiology of asthma (Kudlacz et al. Eur. J Pharmacol, 2008, 582, 154-161). IL-13 binds to cell surface receptors activating members of the Janus family of kinases (JAK) which then phosphorylate STAT6 and subsequently activates further transcription pathways. In the described model, a dose of IL-13 was delivered locally into the lungs of mice to induce the phosphorylation of STAT6 (pSTAT6) which is then measured as the endpoint.
Adult balb/c mice from Harlan were used in the assay. On the day of study, animals were lightly anesthetized with isoflurane and administered either vehicle or test compound (0.5 mg/mL, 50 μL total volume over several breaths) via oral aspiration. Animals were placed in lateral recumbency post dose and monitored for full recovery from anesthesia before being returned to their home cage. Four hours later, animals were once again briefly anesthetized and challenged with either vehicle or IL-13 (0.03 μg total dose delivered, 50 μL total volume) via oral aspiration before being monitored for recovery from anesthesia and returned to their home cage. One hour after vehicle or IL-13 administration, lungs were collected for both pSTAT6 detection using an anti-pSTAT6 ELISA (rabbit mAb capture/coating antibody; mouse mAb detection/report antibody: anti-pSTAT6-pY641; secondary antibody: anti-mouse IgG-HRP) and analyzed for total drug concentration as described above in Assay 4.
Selected compounds of the invention were tested in the assay. Activity in the model is evidenced by a decrease in the level of pSTAT6 present in the lungs of treated animals at 5 hours compared to the vehicle treated, IL-13 challenged control animals. The difference between the control animals which were vehicle-treated, IL-13 challenged and the control animals which were vehicle-treated, vehicle challenged dictated the 0% and 100% inhibitory effect, respectively, in any given experiment.

[2] = Dynamic moisture sorption assessment; format: physicochemical; conditions: humidity range of 5% to 90% relative humidity, about 25° C.
Protocol: Dynamic moisture sorption (DMS) measurement was performed using a VTI atmospheric microbalance, SGA-100 system (VTI Corp., Hialeah, Fla. 33016). A weighed sample was used and the humidity was lowest possible value (close to 0% RH) at the start of the analysis. The DMS analysis consisted of an initial drying step (˜0% RH) for 120 minutes, followed by two cycles of sorption and desorption with a scan rate of 5% RH/step over the humidity range of 5% RH to 90% RH. The DMS run was performed isothermally at 25° C.

[3] = target: JAK1 (Homo sapiens (Human), UniProt P23458); assay: LanthaScreen JAK biochemical assay, JAK1; conditions: C-1 vs Example 1, C-2 vs 7, C-3 vs 13, C-4 vs 6
JAK1, sequence (P23458 whole entry): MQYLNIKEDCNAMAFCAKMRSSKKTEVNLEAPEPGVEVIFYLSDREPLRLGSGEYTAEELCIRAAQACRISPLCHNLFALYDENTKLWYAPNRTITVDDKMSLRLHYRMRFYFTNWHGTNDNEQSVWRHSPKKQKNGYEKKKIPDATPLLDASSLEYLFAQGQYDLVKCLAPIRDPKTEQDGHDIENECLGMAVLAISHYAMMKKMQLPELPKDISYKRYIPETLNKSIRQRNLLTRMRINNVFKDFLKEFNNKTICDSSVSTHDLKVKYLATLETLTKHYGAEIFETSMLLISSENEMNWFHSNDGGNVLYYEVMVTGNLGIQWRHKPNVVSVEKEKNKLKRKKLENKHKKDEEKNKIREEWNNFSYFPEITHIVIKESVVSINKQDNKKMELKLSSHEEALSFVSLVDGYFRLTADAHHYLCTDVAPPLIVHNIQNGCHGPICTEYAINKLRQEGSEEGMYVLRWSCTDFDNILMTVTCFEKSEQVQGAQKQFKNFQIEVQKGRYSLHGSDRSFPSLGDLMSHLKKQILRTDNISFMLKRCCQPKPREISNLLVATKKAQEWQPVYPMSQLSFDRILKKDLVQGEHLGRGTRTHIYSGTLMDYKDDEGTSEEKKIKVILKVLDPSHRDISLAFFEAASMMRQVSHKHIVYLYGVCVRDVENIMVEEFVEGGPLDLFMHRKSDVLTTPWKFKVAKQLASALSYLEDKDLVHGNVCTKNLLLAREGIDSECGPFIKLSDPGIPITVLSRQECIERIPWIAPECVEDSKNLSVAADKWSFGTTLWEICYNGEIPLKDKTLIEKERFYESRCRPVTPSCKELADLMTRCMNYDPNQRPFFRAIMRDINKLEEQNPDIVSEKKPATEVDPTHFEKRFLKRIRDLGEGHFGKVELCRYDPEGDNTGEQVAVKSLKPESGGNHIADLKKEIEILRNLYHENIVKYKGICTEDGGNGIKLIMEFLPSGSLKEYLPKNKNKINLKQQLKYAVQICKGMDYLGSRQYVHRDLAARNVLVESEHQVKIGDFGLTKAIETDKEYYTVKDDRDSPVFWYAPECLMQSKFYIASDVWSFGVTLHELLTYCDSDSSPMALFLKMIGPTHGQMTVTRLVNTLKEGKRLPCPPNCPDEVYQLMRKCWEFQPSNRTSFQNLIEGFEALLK

Compound	pSTAT6 inhibition in the pharmacodynamic assay [1]	weight gain (weight change) on moisture sorption [2]	lung concentration smaller than that of the corresponding compound of the invention by a factor of [1]	fold less potent than the corresponding compound of the invention in the enzyme assay [3] [fold]
CCc1cc(O)c(F)cc1-c1ccc2c(-c3nc4c([nH]3)CCN(CCNC3(C#N)CC3)C4)n[nH]c2c1 [Example 3-1]	exceptions	–	–	–
CCc1cc(O)c(F)cc1-c1ccc2c(-c3nc4c([nH]3)CCN(C3CCN(C)CC3)C4)n[nH]c2c1 [crystalline hydrate, 5-ethyl-2-fluoro-4-(3-(5-(1-methylpiperidin-4-yl)-4,5,6,7-tetrahydro-1H-imidazo[4,5-c]pyridin-2-yl)-1H-indazol-6-yl)phenol]	–	less than 0.12%	–	–
CCc1cc(O)c(F)cc1-c1ccc2c(-c3nc4c([nH]3)CCN(C3CC(C)C3)C4)n[nH]c2c1 (centres unmarked) [Example C-1, 5-Ethyl-2-fluoro-4-(3-(5-(3-methylcyclobutyl)-4,5,6,7-tetrahydro-1H-imidazo[4,5-c]pyridin-2-yl)-1H-indazol-6-yl)phenol]	–	–	36	2
CCc1cc(O)c(F)cc1-c1ccc2c(-c3nc4c([nH]3)CCN(C3CN(C5CCS(=O)(=O)C5)C3)C4)n[nH]c2c1 (centres unmarked) [Example 1-15]	exceptions	–	–	–
CCc1cc(O)c(F)cc1-c1ccc2c(-c3nc4c([nH]3)CCN(CCC(C)C)C4)n[nH]c2c1 [Example C-2]	–	–	52	3
CCc1cc(O)c(F)cc1-c1ccc2c(-c3nc4c([nH]3)CCN(C3CCC(C)CC3)C4)n[nH]c2c1 (centres unmarked) [Example C-4]	–	–	23	2.5
CCc1cc(O)c(F)cc1-c1ccc2c(-c3nc4c([nH]3)CCN(CC3CCCOC3)C4)n[nH]c2c1 (centres unmarked) [Example C-3]	–	–	13	6
